Test system: ADJ/PC6 tumour
Test: anti-tumour activity against ADJ/PC6 tumour implanted into female Balb C- mice
Type: in vivo
Set-up: LD50: unit not given here
Details: for TI / ED90: ADJ/PC6 tumour; for ED90: in mg/kg (unit assumed)
Description: Compounds were administered both parenterally (IP) and orally (PO).

Compound | LD50 (IP (parenteral)) | TI (IP (parenteral)) | ED90 (IP (parenteral)) | LD50 (PO (oral)) | TI (PO (oral)) | ED90 (PO (oral))
CC1(C)OC(CN)C(CN)O1.[Br][Pt][Br] (racemic) [cis-dibromo[4,5-bis(aminomethyl)-2,2-dimethyl-1,3-dioxolane]platinum (II)] | 21 | 5.2 | 4 |  |  | 
cis-dichloro[2,3-dihydroxy-1,2-diamino butane)-platinum (II) [reference compound] | > 400 | > 1 | 380 | > 800 |  | 
[Cl][Pt]1([Cl])[NH]CC2OC(c3ccccc3)OC2C[NH]1 [cis-dichloro[(4S,5S)-4,5-bis-(aminomethyl)-2-phenyl-1,3-dioxolane]platinum (II)] | > 800 | > 26 | 30 | > 1600 | > 1 | ~ 1600
CC1(C)OC(CN)C(CN)O1.[Cl][Pt][Cl] [cis-dichloro[(4S,5S)-4,5-bis-(aminomethyl)-2,2-dimethyl-1,3-] [cis-dichloro[(4S,5S)-4,5-bis-(aminomethyl)-2,2-dimethyl-1,3-dioxolane]platinum (II)] | 35 | 23.9 | 1.46 | 1130 | 43.5 | 26
CC1(C)OC(CN)C(CN)O1.[Cl][Pt][Cl] [cis-dichloro[(4R,5R)-4,5-bis-(aminomethyl)-2,2-dimethyl-1,3-] [cis-dichloro[(4R,5R)-4,5-bis-(aminomethyl)-2,2-dimethyl-1,3-dioxolane]platinum (II)] | 35 | 22.6 | 1.6 | 1100 | 122 | 9
